Results reported in patent publication EP0429372A1, “2-Azolyl nicotinate derivatives as herbicides” (RHONE-POULENC AGROCHIMIE, priority 1989, dated 1991).
Where two headings read alike, the source gives them in different places.

Experiments:
Format in all cases: in vivo
Digitaria sanguinalis = experiment: Example B: post-emergence herbicidal application, pot test; conditions: 4000 g/ha, 576 h
From the text: (§1) Dans des pots de 7 x 7 x 8 cm remplis de terre agricole légère, on sème un nombre de graines déterminé en fonction de l'espèce végétale et de la grosseur de la graine.
(§2) On recouvre ensuite les graines d'une couche de terre d'environ 3 mm d'épaisseur et on laisse germer la graine jusqu'à ce qu'elle donne naissance à une plantule au stade convenable. Le stade de traitement pour les graminées est le stade "deuxième feuille en formation ". Le stade de traitement pour les dicotylédones, est le stade "cotylédons étalés, première feuille vraie en développement".
(§3) Les pots sont alors traités par pulvérisation de bouillie en quantité correspondant à une dose volumique d'application de 500 l/ha et contenant la matière active à la concentration désirée.
(§4) La bouille a été préparée de la même manière qu'à l'exemple A.
(§5) Les pots traités sont ensuite placés dans des bacs destinés à recevoir l'eau d'arrosage, en subirrigation, et maintenus pendant 24 jours à température ambiante sous 70 % d'humidité relative.
(§6) Au bout de 24 jours, on mesure un pourcentage (D) de destruction du nombre de pieds dans le pot traité par rapport au nombre de plantes dans les pots non traités (témoin). On mesure, sur les plantes traitées restantes, le pourcentage de réduction de taille (RT) par rapport aux plantes témoin.
(§7) Le pourcentage du volume foliaire non détruit par le produit est donc donné par la formule : [formula]
(§8) Cette valeur A est transformée en notation de 0 à 5 selon l'échelle suivante :
(§9) Les résultats obtenus sont présentés après le tableau A pour des doses d'application de 4000 g/ha.

Echinochloa crusgalli = experiment: as above; conditions: 4000 g/ha, 576 h
From the text: as §1, §2, §3, §4, §5, §6, §7, §8, §9

Ipomea purpurea = experiment: as above; conditions: 4000 g/ha, 576 h
From the text: as §1, §2, §3, §4, §5, §6, §7, §8, §9

Lolium multiflorum = experiment: as above; conditions: 4000 g/ha, 576 h
From the text: as §1, §2, §3, §4, §5, §6, §7, §8, §9

Sinapis alba [1] = experiment: as above; conditions: 4000 g/ha, 576 h
From the text: as §1, §2, §3, §4, §5, §6, §7, §8, §9

Solanum nigrum [2] = experiment: as above; conditions: 4000 g/ha, 576 h
From the text: as §1, §2, §3, §4, §5, §6, §7, §8, §9

Ipomea pupurea = experiment: Example C: selectivity test in major crops, post-emergence application; conditions: 576 h
From the text: as §1
as §2, with “formation".” for “formation ".”
as §3
(§10) La bouillie a été préparée de la même manière qu'à l'exemple A.
as §5, §6
(§11) Le pourcentage de volume foliaire non détruit par le produit est donc donné par la formule : [formula]
as §8
(§12) Ainsi, un produit est jugé comme sélectif vis à vis de la culture lorsque la valeur A notée est de 0 ou 1.
(§13) Les résultats obtenus sont présentés dans l'exemple C pour des doses d'application comprises entre 0,5 et 4 kg de matière active par hectare selon les produits.

Oryza sativa = experiment: as above; conditions: crop (Riz), 24 days, score 0-5, 0 or 1 = selective; further: ranges in brackets are in %
From the text: as §1
as §2, with “formation".” for “formation ".”
as §3, §10, §5, §6, §11, §8, §12, §13

Sesbania exaltata = experiment: as above; conditions: 576 h
From the text: as §1
as §2, with “formation".” for “formation ".”
as §3, §10, §5, §6, §11, §8, §12, §13

Sinapis alba [3] = experiment: as above; conditions: 576 h
From the text: as §1
as §2, with “formation".” for “formation ".”
as §3, §10, §5, §6, §11, §8, §12, §13

Solanum nigrum [4] = experiment: as above; conditions: 576 h
From the text: as §1
as §2, with “formation".” for “formation ".”
as §3, §10, §5, §6, §11, §8, §12, §13

Triticum aestivum = experiment: as above; conditions: crop (Blé), 24 days, score 0-5, 0 or 1 = selective; further: ranges in brackets are in %
From the text: as §1
as §2, with “formation".” for “formation ".”
as §3, §10, §5, §6, §11, §8, §12, §13

Xanthium pennsylvanicum = experiment: as above; conditions: 576 h
From the text: as §1
as §2, with “formation".” for “formation ".”
as §3, §10, §5, §6, §11, §8, §12, §13

Zea mays = experiment: as above; conditions: crop (Maïs), 24 days, score 0-5, 0 or 1 = selective; further: ranges in brackets are in %
From the text: as §1
as §2, with “formation".” for “formation ".”
as §3, §10, §5, §6, §11, §8, §12, §13

mauvaises herbes [5] = experiment: Procedure 1 b): weed control, pre-emergence application; conditions: 4000 g/ha (procédé 1B), visual rating 17 to 20 days after spraying, vs control pots
From the text: (§14) Des quantités appropriées des composés d'essai ont été dissoutes dans de l'acétone pour obtenir des solutions équivalant à des taux d'application de 250, 1000 ou 4000 g de composé d'essai par hectare (g/ha).
Des graines de mauvaises herbes ont été semées à la surface de compost de mise en pot John Innes N°1 (7 parties par volume de terre végétale stérilisée, 3 parties en volume de gravier fin) dans des pots en matière plastique de 70 mm de côté et 75 mm de profondeur. Les quantités de graines par pot étaient les suivantes :
Les composés de la présente invention ont été appliqués aux graines non recouvertes de la manière décrite dans le paragraphe (a) ci-dessus et ces graines ont été recouvertes avec 25ml de sable liant après pulvérisation. Un seul pot de chaque espèce de mauvaise herbe a été attribué à chaque traitement, en association avec des témoins n'ayant pas subi de pulvérisation et des témoins ayant subi une pulvérisation avec de l'acétone seule. Après traitement, les pots ont été maintenus dans une serre et ont été arrosés par aspersion. L'évaluation visuelle de l'activité de destruction des mauvaises herbes a été effectuée 17 à 20 jours après pulvérisation. Les résultats ont été exprimés par le pourcentage de réduction de croissance ou de mortalité des mauvaises herbes, comparativement aux plantes présentes dans les pots témoins.

mauvaises herbes [6] = conditions: post-emergence
From the text: as §14
Des espèces de mauvaises herbes ont été cultivées, puis transplantées au stade de jeunes plants de semis dans du compost de mise en pot John Innes N°1 dans des pots en matière plastique de 70 mm de côté et 75 mm de profondeur, sauf en ce qui concerne Avena fatua, qui a été semée directement dans le pot d'essai et n' a pas été transplantée. Puis les plantes ont été cultivées dans la serre jusqu'à ce qu'elles soient prêtes à subir une pulvérisation avec les composés d'essai. Le nombre de plantes par pot et la croissance de la plante au moment de la pulvérisation étaient les suivantes :
Les composés d'essai ont été appliquées aux plantes de la manière décrite dans le paragraphe (a) ci-dessus. Un seul pot de chaque espèce de mauvaises a été attribué à chaque traitement, en association avec des témoins n'ayant pas subi de pulvérisation et des témoins ayant subi une pulvérisation avec de l'acétone seule. Après pulvérisation, les pots ont été arrossés par aspersion, en commençant 24 heures après pulvérisation. L'évalutation visuelle de la lutte contre la croissance des mauvaises herbes a été effectuée 17 à 20 jours après pulvérisation. Les résultats ont été exprimés en pourcentage de réduction de croissance ou de mortalité des mauvaises herbes, comparativement aux plantes présentes dans les pots témoins.

With `CN(C)S(=O)(=O)n1nc(-c2ccccc2)nc1-c1ncccc1C(=O)O` [compound 1, Sel d'isopropylamine de 3 -(3 - carboxy 2 - pyridyl) 2 - N,N dimethyl sulfamoyl 5 - phényl 1,2,4 - triazole] the “ACTIVITE DE POST-LEVEE DIG” value (Digitaria sanguinalis) was 0 (90 à 100), the “ACTIVITE DE POST-LEVEE ECH” value (Echinochloa crusgalli) was 0 (90 à 100) and the “ACTIVITE DE POST-LEVEE IPO” value (Ipomea purpurea) was 3 (30 à 50). The “ACTIVITE DE POST-LEVEE LOL” value (Lolium multiflorum) was 0 (90 à 100), the “ACTIVITE DE POST-LEVEE SIN” value (Sinapis alba [1]) was 5 (O à 10) and the “ACTIVITE DE POST-LEVEE SOL” value (Solanum nigrum [2]) was 5 (O à 10). The “ACTIVITE HERBICIDE DE POST LEVEE I P O” value (Ipomea pupurea; 1000 g/ha) was 4 (10 à 30), the “ACTIVITE HERBICIDE DE POST LEVEE O R Y” value (Oryza sativa; dose 1 kg/ha) was 0 (90 à 100) and the “ACTIVITE HERBICIDE DE POST LEVEE S E S” value (Sesbania exaltata; 1000 g/ha) was 5 (O à 10). The “ACTIVITE HERBICIDE DE POST LEVEE S I N” value (Sinapis alba [3]; 1000 g/ha) was 5 (O à 10), the “ACTIVITE HERBICIDE DE POST LEVEE S O L” value (Solanum nigrum [4]; 1000 g/ha) was 5 (O à 10) and the “ACTIVITE HERBICIDE DE POST LEVEE T R Z” value (Triticum aestivum; dose 1 kg/ha) was 0 (90 à 100). The “ACTIVITE HERBICIDE DE POST LEVEE X A N” value (Xanthium pennsylvanicum; 1000 g/ha) was 4 (10 à 30) and the “ACTIVITE HERBICIDE DE POST LEVEE Z E A” value (Zea mays; dose 1 kg/ha) was 0 (90 à 100).

`CN(C)S(=O)(=O)n1nc(-c2cccc(Cl)c2)nc1-c1ncccc1C(=O)O` [compound 9] was tested, and the “ACTIVITE DE POST-LEVEE DIG” value (Digitaria sanguinalis) was 2 (50 à 70), the “ACTIVITE DE POST-LEVEE ECH” value (Echinochloa crusgalli) was 2 (50 à 70) and the “ACTIVITE DE POST-LEVEE IPO” value (Ipomea purpurea) was 3 (30 à 50). For the same compound, the “ACTIVITE DE POST-LEVEE LOL” value (Lolium multiflorum) was 0 (90 à 100), the “ACTIVITE DE POST-LEVEE SIN” value (Sinapis alba [1]) was 4 (10 à 30) and the “ACTIVITE DE POST-LEVEE SOL” value (Solanum nigrum [2]) was 3 (30 à 50). The “ACTIVITE HERBICIDE DE POST LEVEE I P O” value (Ipomea pupurea; 500 g/ha) was 3 (30 à 50), the “ACTIVITE HERBICIDE DE POST LEVEE O R Y” value (Oryza sativa; dose 0,5 kg/ha) was 1 (70 à 90) and the “ACTIVITE HERBICIDE DE POST LEVEE S E S” value (Sesbania exaltata; 500 g/ha) was 5 (O à 10). The “ACTIVITE HERBICIDE DE POST LEVEE S I N” value (Sinapis alba [3]; 500 g/ha) was 3 (30 à 50), the “ACTIVITE HERBICIDE DE POST LEVEE S O L” value (Solanum nigrum [4]; 500 g/ha) was 4 (10 à 30) and the “ACTIVITE HERBICIDE DE POST LEVEE T R Z” value (Triticum aestivum; dose 0,5 kg/ha) was 0 (90 à 100). For the same compound, the “ACTIVITE HERBICIDE DE POST LEVEE X A N” value (Xanthium pennsylvanicum; 500 g/ha) was 3 (30 à 50) and the “ACTIVITE HERBICIDE DE POST LEVEE Z E A” value (Zea mays; dose 0,5 kg/ha) was 2 (50 à 70).

With `CN(C)S(=O)(=O)n1c(-c2ncccc2C(=O)O)nc2cc(OC(F)(F)F)ccc21` [compound 92] the “réduction de la croissance d'une ou plusieurs des espèces de mauvaises herbes” value (mauvaises herbes [5]) was no less than 90% and the “réduction de la croissance d'une ou plusieurs des espèces de mauvaises herbes” value (mauvaises herbes [6]) was no less than 90%.
